Values of other authors in patent publication US20060078922A1, “Novel purified polypeptides from haemophilus influenzae” (Affinium Pharmaceuticals, Inc., priority 2003, published 2006).

Molecular target: phosphopantetheine adenyltransferase (Escherichia coli, UniProt P0A6I6)
Settings: qualitative statement, species not given

Sequence of phosphopantetheine adenyltransferase (P0A6I6 whole entry): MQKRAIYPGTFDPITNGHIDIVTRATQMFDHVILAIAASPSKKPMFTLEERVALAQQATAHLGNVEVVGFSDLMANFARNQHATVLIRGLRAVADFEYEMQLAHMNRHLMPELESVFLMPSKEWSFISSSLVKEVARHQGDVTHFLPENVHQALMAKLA

Structure (SMILES): CC(C)(COP(=O)(O)OP(=O)(O)OC[C@H]1O[C@@H](n2cnc3c(N)ncnc32)[C@H](O)[C@@H]1OP(=O)(O)O)[C@@H](O)C(=O)NCCC(=O)NCCS [Coenzyme-A]
- inhibition of phosphopantetheine adenyltransferase: known to inhibit
